According to US11022604B2, “Dock derived compound against laminin receptor (37 LR) and uses thereof” (Purdue Research Foundation, priority 2017, dated 2021):

Tested on: c-MYC binding site luciferase reporter in PC-3 cells
Test: c-MYC binding site luciferase reporter assay
Assay type: cell-based
Conditions: 24 hours
Method: FIG. 9. Luciferase promoter Assay in PC-3 cells. PC-3 cells were treated with 1, 10, 50 μM C3 or DMSO control for 24 hours after a 24 transfection with Myc-Luc and B-Gal plasmid to normalize for transfection efficiency (n=6, mean±SEM). Relative light units calculated by normalizing Myc-Luc signal to B-gal signal. A one-way ANOVA was used for statistical analysis (P<0.05). The linear trend was also significant (pose test for linear trend, p, 0.05).
Wound Healing Assay. PC-3 cells were seeded in 6 well plates at 3×10^5 cells per well in complete media until the cells reached confluency. Three horizontal and three vertical scratches were made in the confluent monolayers using a standard 200 μL pipette tip and cellular debris were removed by washing with 1×DPBS three times. 1×RPMI-1640 supplemented with C3 or DMSO was added and cells were incubated for 48 hours as described previously. […] Images were uploaded and analyzed for scratch geometry using the tscratch program (96). First, global thresholding was performed, then individual images were manually inspected for single image threshold adjustment and scratch geometries were quantified. […] The samples were analyzed using the Dionex UltiMate 3000 RSLC Nano System coupled to the Q Exactive™ HF Hybrid Quadrupole-Orbitrap MS (Thermo Scientific). […]

O=C(c1cc(F)cc2c1OCOC2)N1CCN(C2c3ccccc3-c3ccccc32)CC1 [Compound C3, [4-(9h-fluoren-9-yl)piperazino](6-fluoro-4h-1,3-benzodioxin-8-yl)methanone]
reduction of c-myc binding activity (luciferase reporter) (PC-3, 50 μM): 36%
effect on c-myc luciferase reporter activity (PC-3, 1 and 10 μM): no significant effect
